Measurements taken from publication PMC4774911, “Biochemical Screening of Five Protein Kinases from Plasmodium falciparum against 14,000 Cell-Active Compounds” (PLoS ONE, 2016).
“And” between values parts separate entries of the source, which are not always exact repeats. Identical values can stand only once.

Legend:
Test in all cases: biochemical
Design in all cases: endogenous in cells; host or cells: K562 cell extract; species or system K562 (extract); replicate k of n = 2 (each experiment ID is one independent experiment; two experiment IDs per compound)
Conditions in all cases: read-out: KDapp
BMPR2 = target: T1, BMPR2 (Homo sapiens, UniProt Q13873)
T1 sequence (Q13873 1-1038): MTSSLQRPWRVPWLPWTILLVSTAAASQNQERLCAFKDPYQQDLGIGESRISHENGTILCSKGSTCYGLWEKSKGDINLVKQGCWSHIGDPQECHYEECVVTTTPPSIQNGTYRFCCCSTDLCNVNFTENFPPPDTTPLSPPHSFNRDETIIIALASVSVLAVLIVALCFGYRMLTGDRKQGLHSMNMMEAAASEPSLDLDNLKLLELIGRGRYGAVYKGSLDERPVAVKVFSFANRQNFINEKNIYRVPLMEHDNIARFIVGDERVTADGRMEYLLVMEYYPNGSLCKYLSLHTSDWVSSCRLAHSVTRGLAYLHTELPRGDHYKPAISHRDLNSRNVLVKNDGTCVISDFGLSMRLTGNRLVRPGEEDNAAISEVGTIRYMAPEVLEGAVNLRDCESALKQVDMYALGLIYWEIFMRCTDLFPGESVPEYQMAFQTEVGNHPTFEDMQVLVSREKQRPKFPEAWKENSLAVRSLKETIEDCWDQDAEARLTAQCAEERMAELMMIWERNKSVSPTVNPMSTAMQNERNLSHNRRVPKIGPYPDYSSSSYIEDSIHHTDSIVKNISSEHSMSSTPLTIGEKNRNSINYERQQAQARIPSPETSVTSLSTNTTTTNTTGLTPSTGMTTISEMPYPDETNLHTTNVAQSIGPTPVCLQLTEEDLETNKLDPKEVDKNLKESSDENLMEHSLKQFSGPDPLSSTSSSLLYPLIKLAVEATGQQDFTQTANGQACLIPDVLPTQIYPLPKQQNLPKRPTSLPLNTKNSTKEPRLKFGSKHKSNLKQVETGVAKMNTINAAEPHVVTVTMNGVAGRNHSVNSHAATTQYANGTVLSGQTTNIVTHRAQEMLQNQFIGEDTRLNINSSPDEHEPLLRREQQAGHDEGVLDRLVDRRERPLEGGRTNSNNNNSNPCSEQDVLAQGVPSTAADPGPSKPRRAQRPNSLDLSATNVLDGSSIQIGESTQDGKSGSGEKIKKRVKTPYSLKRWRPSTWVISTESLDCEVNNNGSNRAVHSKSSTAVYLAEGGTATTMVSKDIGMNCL

LIMK1 = LIMK1 (Homo sapiens, UniProt P53667)
NEK6 = NEK6 (Homo sapiens, UniProt Q9HC98)
PRKACA = PRKACA (Homo sapiens, UniProt P17612)
RPS6KA3 = RPS6KA3 (Homo sapiens, UniProt P51812)
TNK2 = TNK2 (Homo sapiens, UniProt Q07912)
TNK1 = target: T2, TNK1 (Homo sapiens, UniProt Q13470)
T2 sequence (Q13470 1-666): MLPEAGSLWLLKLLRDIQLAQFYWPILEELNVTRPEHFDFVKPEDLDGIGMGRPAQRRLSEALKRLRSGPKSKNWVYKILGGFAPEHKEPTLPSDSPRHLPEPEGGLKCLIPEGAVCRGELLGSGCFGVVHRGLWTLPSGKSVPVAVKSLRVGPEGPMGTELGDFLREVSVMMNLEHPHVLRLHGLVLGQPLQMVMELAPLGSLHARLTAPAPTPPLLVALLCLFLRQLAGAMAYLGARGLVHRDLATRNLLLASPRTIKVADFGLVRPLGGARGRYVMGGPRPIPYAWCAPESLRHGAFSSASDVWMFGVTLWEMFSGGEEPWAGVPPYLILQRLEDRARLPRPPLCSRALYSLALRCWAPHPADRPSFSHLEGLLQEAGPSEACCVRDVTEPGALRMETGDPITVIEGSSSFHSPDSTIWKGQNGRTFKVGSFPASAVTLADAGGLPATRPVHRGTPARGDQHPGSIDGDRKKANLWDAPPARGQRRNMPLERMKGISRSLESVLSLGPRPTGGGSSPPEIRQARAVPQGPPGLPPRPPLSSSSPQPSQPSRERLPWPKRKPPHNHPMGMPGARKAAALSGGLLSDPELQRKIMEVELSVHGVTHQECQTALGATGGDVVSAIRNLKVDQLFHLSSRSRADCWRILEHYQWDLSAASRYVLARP

Sequence of RPS6KA3 (P51812 whole entry): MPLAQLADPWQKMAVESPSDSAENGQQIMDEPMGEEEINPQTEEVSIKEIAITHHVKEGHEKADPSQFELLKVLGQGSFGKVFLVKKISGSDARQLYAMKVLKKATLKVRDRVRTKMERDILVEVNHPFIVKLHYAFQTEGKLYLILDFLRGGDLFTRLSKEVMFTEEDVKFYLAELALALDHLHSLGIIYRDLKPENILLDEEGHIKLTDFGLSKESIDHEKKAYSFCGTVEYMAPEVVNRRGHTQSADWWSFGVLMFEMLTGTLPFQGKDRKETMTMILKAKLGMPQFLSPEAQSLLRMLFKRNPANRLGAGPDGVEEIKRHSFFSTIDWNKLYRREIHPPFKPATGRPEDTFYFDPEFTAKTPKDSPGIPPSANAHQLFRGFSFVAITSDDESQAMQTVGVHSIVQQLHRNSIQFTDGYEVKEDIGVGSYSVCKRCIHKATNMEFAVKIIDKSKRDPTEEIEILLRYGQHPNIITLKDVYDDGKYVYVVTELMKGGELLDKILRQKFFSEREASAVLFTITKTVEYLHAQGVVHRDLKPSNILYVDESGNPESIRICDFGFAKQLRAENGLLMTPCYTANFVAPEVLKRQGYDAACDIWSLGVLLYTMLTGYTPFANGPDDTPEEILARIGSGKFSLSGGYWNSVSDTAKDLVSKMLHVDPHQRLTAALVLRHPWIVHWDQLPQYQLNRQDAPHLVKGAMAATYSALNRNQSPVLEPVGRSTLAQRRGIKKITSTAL
Sequence of NEK6 (Q9HC98 whole entry): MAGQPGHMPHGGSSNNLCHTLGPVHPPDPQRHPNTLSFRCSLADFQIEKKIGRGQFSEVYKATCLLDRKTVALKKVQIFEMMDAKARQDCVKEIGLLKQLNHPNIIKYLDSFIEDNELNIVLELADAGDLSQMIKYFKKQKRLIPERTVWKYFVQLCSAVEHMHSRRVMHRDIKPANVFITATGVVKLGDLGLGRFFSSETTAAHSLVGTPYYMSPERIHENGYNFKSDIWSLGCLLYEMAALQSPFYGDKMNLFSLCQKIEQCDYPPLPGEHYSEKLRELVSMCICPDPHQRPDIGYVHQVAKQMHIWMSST
Sequence of LIMK1 (P53667 whole entry): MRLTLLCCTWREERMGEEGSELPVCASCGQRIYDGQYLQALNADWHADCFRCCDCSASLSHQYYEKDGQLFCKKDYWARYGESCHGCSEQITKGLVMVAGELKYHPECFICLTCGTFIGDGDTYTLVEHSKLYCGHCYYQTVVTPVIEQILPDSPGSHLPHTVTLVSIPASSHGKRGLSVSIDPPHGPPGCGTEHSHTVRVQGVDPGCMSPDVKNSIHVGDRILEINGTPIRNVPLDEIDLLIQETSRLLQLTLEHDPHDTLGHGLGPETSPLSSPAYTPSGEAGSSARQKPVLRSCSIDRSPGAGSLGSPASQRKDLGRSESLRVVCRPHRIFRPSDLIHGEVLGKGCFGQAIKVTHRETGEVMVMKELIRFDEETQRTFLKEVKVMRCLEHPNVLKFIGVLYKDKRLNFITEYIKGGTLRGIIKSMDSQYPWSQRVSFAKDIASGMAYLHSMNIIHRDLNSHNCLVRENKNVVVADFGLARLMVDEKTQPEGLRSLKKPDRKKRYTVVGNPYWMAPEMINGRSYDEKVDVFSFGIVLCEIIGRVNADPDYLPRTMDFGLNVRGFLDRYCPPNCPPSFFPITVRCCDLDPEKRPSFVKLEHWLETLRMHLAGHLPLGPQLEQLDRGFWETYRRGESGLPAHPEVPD
Sequence of TNK2 (Q07912 whole entry): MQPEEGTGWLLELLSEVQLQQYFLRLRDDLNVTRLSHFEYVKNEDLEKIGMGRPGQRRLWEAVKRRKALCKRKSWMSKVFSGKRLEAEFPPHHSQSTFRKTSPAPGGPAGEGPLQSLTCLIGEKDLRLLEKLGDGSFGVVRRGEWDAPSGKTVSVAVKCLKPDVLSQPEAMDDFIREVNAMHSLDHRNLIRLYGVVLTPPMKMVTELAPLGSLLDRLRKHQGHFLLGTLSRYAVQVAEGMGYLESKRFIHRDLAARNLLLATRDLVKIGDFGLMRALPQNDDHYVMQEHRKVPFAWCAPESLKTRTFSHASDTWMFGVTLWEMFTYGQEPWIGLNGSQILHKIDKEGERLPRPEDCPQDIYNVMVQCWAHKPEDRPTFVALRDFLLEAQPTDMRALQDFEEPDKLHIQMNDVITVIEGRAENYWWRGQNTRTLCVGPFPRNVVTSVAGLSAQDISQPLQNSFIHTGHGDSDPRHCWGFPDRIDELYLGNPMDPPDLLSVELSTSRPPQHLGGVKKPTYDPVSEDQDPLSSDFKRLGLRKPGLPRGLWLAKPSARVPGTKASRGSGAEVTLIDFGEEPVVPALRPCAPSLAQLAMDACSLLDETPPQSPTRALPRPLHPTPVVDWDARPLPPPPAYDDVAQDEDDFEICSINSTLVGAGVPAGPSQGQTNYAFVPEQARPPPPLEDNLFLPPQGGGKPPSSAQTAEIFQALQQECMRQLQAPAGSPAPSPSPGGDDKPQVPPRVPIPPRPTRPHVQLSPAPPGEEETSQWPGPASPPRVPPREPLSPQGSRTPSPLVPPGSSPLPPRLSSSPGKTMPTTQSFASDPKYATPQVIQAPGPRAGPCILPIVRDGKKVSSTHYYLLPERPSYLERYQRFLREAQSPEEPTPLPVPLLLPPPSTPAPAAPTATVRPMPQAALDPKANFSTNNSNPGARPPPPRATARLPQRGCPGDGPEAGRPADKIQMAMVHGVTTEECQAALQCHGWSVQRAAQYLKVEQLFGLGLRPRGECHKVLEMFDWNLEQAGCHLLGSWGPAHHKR

Structure (SMILES): CN1CCN(c2ccc(Nc3ncc(C#N)c(Nc4ccccc4C(N)=O)n3)cc2)CC1.Cl [TCMDC-134116]
- Kd (BMPR2): 3470 nM and 4750 nM
- Kd (LIMK1): 121 nM
- Kd (NEK6): 160 nM
- Kd (PRKACA): 1330 nM
- Kd (RPS6KA3): 60.8 nM and 82 nM
- Kd (TNK2): 73.5 nM

Structure (SMILES): CN(C)CC(O)COc1ccc(Nc2ncc([N+](=O)[O-])c(Nc3ccccc3O)n2)cc1.O=C(O)C(F)(F)F (stereo not shown) [TCMDC-141399]
- Kd (TNK1): 1150 nM and 464 nM
